Measurements taken from patent US9939427B2, “Method for evaluating the scent performance of perfumes or perfume mixtures” (Symrise AG, priority 2013, dated 2018).
Entries after “also recorded” stand apart in the source; their conditions may differ.

Legend:
Type in all cases: cell-based
[1] = target: T1, OR4K2 (Homo sapiens, UniProt Q8NGD2); test: Ca-imaging of OR4K2-transfected HEK293 cells; parameters: key to OR4K2 responded to odorant: ▪: 18 olfactory receptors responded to 32 odorants in related with specific anosmia; settings: HEK293 cells, individual odorant 200 μM, significant response p<0.05
T1 construct: specific primers, which amplify the complete open reading frame; expressed in transfected cells; host or cells: HEK293
T1 sequence (Q8NGD2 1-314): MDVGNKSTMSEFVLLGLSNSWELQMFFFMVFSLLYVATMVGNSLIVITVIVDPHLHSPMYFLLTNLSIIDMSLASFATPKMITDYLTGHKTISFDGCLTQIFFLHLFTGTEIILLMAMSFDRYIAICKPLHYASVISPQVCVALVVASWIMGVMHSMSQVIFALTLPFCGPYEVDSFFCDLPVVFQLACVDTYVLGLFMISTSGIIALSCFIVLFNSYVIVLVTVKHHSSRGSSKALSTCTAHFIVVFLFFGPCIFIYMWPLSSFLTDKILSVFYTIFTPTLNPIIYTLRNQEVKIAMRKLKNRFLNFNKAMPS
Experimental: (§1) HEK293 cells were cultivated in Petri dishes (Ø35 mm) as previously described (Benbernou et al. 2007). We grow up HEK293 cells in culture medium containing standard DMEM with 10% heat-inactivated fetal bovine serum, 2 mM L-glutamine, 100 units/ml penicillin, and 100 units/ml streptomycin in a humidified atmosphere (37° C., 5% CO2). After 2-3 days, the transfection process was carried out, whereby the cell culture was 70-80% confluent. The calciumphosphate method was applied to transfect DNA plasmid transiently in HEK293 cells in case of Ca-imaging method.
(§2) Calcium cations and phosphate anions created crystal precipitations coupled with DNA which could invade into the cells through endocytosis. Cells were transiently transfected with plasmid DNA which consists of pCI expression vector and PCR-amplified full-length cDNA of olfactory receptors candidates, and also Gα15, RTP1, Myr-Ric8A, HSC70, and m-Cherry as cofactors. The precipitation could be created after 15-20 min, with dropping the transfection solution on HEK293 cells. Before measuring by Ca-imaging cells were incubated 48-60 hours at 370 C, 5% CO2. Cationic liposome-mediated transfection method was applied to transfect DNA plasmid transiently in HANA3A cells in case of CRE-Luciferase and CRE-SEAP assays.
(§3) Calcium imaging of the transfected HEK293 cells was done by using chambers determinate an inverted microscope (Olympus; IX70) using a 10× objective (CPIanFL N Olympus). Fluorescence emission was determined every 4 s by using a CCD camera (Charge Coupled Device, C9100 Hamamatsu). The capillary tube which was responsible to supply odorants was generated closely above the cells. The columns filled with odorants, DMSO and ATP. Odorants were manually monitored to drop each 4-5 s to transfected cells. Solutions with drop wise form spread on HEK293 cells in 35 mm dishes.
(§4) In experiments, Fura-2 Acetoxymethylester (Fura-2/AM) was applied. The non-polar Fura2/AM is fluorescent but not yet calcium-sensitive. Once diffuses into cell plasma, Fura-2/AM is hydrolyzed to Fura-2 which is calcium-sensitive and functions as Ca2+ chelator. Regardless of the presence of calcium, Fura-2 emits at the wavelength of 510 nm. Once Fura-2 binds to free intracellular Ca2+ in cell plasma, its ratio of excitation at wavelengths of 340 nm and 380 nm is changed and correlated to the amount of intracellular Ca2+. According to this feature, the analysis of 340/380 nm excitation ratio for Fura-2 allows to quantify intracellular calcium levels.
(§5) In preparation for Ca-imaging measurements, transfected HEK293 cells were added 3 it Fura2/AM (3 μM) and incubated 30-45 min at 370 C, 5% CO2. After this step, experiments were carried out in a dark condition (Fura-2 is light-sensitive). After the incubation, medium of cell culture was replaced with 2 ml Ringer's solution.
(§6) Odorants were freshly prepared with DMSO as 1 M stocks solutions. Six mixtures (200 μM each chemical) were applied to cells sequentially (20 s each mixture/30 s Ringer). Those ORs tested with single odorants that had generated a response to odorant mixture group previously. Odorants were prepared in 100-200 μM concentration.
(§7) Ringer's solution was used for washing cells between measuring by two different odorants. Positive response was determined by the timing of the response, the strength of the response (more than twofold higher than the noise amplitude of the baseline), and the shape of the response curve (sharp rise in curve with gradual recovery). […]

[2] = target: T2, OR10A6 (Homo sapiens, UniProt Q8NH74); test: Ca-imaging of OR10A6-transfected HEK293 cells; parameters: key to OR10A6 responded to odorant: ▪: 18 olfactory receptors responded to 32 odorants in related with specific anosmia; settings: for OR10A6 responded to odorant: HEK293 cells, individual odorant 200 μM, significant response p<0.05; for Response of OR10A6 to odorant, in words: single odorants 200 μM
T2 construct: specific primers, which amplify the complete open reading frame; expressed in transfected cells; host or cells: HEK293
T2 sequence (Q8NH74 1-314): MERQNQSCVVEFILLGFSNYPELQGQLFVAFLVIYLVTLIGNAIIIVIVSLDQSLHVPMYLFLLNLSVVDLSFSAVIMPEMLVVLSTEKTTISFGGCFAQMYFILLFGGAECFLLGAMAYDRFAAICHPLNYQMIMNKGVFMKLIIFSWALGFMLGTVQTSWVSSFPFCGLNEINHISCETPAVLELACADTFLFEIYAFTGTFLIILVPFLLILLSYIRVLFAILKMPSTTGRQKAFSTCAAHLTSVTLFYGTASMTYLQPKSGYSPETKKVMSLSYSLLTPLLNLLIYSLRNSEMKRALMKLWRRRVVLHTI
Experimental: as §1, §2, §3, §4, §5, §6, §7

[3] = system: HEK293 cells transfected with all cofactors and pCI plasmids without ORs; test: Ca-imaging of control HEK293 cells without OR; settings: odorant 200 μM, three times of measuring (Table 4, FIG. 5)
Experimental: as §1, §2, §3, §4, §5, §6
(§8) Ringer's solution was used for washing cells between measuring by two different odorants. Positive response was determined by the timing of the response, the strength of the response (more than twofold higher than the noise amplitude of the baseline), and the shape of the response curve (sharp rise in curve with gradual recovery). The typical shape of response curves was established by observing responses to repeated stimulation with 200 μM of odorants. After testing with single odorants at 100 μM, stimulating odorants were often retested at 200 μM concentrations. To confirm the result of every receptor that produced a significant response curves, the experiment was repeated for twelve times. Finally, cells were exposed to ATP (0.25 mM) which could activate P2Y receptor channel and induce Ca2+ influx into cells. […]

[4] = target: T3, OR8B4 (Homo sapiens, UniProt Q96RC9); test: Ca-imaging of OR8B4-transfected HEK293 cells; parameters: key to OR8B4 responded to odorant: ▪: 18 olfactory receptors responded to 32 odorants in related with specific anosmia; settings: for Response of OR8B4 to odorant, in words: single odorants 200 μM
T3 construct: specific primers, which amplify the complete open reading frame; expressed in transfected cells; host or cells: HEK293
T3 sequence (Q96RC9 1-309): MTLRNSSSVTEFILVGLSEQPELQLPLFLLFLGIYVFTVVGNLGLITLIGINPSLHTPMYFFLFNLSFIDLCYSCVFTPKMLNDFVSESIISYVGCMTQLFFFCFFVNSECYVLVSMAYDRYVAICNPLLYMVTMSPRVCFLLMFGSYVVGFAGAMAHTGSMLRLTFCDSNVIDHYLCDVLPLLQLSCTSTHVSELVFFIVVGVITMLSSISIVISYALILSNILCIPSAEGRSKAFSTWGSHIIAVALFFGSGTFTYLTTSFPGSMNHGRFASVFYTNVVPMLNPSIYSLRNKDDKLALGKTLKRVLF
Experimental: as §1, §2, §3, §4, §5, §6, §8

[5] = target: T4, OR8D2 (Homo sapiens, UniProt Q9GZM6); test: Ca-imaging of OR8D2-transfected HEK293 cells; parameters: key to OR8D2 responded to odorant: ▪: 18 olfactory receptors responded to 32 odorants in related with specific anosmia; settings: for OR8D2 responded to odorant / Response of OR8D2 to odorant, in words: Ca-imaging; for OR8D2 responded to odorant: HEK293 cells, individual odorant 200 μM, significant response p<0.05; for Response of OR8D2 to odorant, in words: single odorants 200 μM; for Number of cell responses, Experiment (OR8D2): odorant 200 μM, approximately 2000 transfected cells in three times of measuring (Table 4, FIG. 5)
T4 construct: specific primers, which amplify the complete open reading frame; expressed in transfected cells; host or cells: HEK293
T4 sequence (Q9GZM6 1-311): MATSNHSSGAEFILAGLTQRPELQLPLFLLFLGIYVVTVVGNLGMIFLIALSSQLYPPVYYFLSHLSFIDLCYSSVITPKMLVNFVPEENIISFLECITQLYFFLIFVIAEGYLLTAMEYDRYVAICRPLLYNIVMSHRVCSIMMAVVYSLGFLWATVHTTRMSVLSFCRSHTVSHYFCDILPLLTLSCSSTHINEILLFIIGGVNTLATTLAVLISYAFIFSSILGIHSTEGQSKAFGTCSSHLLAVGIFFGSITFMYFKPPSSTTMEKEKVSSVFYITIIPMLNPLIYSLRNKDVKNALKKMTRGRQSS
Experimental: as §1, §2, §3, §4, §5, §6, §8

[6] = target: T5, OR4X2 (Homo sapiens, UniProt Q8NGF9); test: Ca-imaging of OR4X2-transfected HEK293 cells; settings: odorant 200 μM, approximately 2000 transfected cells in three times of measuring (Table 4, FIG. 5)
T5 construct: specific primers, which amplify the complete open reading frame; expressed in transfected cells; host or cells: HEK293
T5 sequence (Q8NGF9 1-303): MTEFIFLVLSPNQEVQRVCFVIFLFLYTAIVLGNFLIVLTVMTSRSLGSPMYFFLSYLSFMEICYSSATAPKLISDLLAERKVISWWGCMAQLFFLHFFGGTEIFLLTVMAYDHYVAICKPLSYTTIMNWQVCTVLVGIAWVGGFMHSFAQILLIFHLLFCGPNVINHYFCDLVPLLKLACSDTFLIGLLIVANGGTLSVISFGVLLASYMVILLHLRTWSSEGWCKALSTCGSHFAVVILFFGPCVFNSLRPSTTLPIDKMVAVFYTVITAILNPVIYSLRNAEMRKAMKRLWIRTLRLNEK
Experimental: as §1, §2, §3, §4, §5, §6, §8

| SMILES | OR10A6 responded to odorant [2] | OR8D2 responded to odorant [5] | Number of cell responses, Experiment (OR8D2) [5] | OR4K2 responded to odorant [1] | Response of OR10A6 to odorant, in words [2] | Number of cell responses, Control [3] | Response of OR8B4 to odorant, in words ([4]; Ca-imaging) | Response of OR8D2 to odorant, in words [5] | OR8B4 responded to odorant ([4]; Ca-imaging, HEK293 cells, individual odorant 200 μM, significant response p<0.05) | Number of cell responses (OR8B4) ([4]; odorant 200 μM, approximately 2000 transfected cells in three times of measuring (FIG. 5)) | Number of cell responses, Experiment (OR4X2) [6] |
| --- | --- | --- | --- | --- | --- | --- | --- | --- | --- | --- | --- |
| O=Cc1ccccc1 [Banzaldehyde, Benzaldehyde] |  |  |  | ▪ |  |  |  |  |  |  |  |
| COc1ccc(C=O)cc1 [Anisic aldehyde, Anisic Aldehyde] |  |  |  |  |  | 0 | responded significantly |  | ▪ | 14 | 14 |

Continued, in another order:

| OR10A6 responded to odorant [2] | OR8D2 responded to odorant [5] | Number of cell responses, Experiment (OR8D2) [5] | SMILES | OR4K2 responded to odorant [1] | Response of OR10A6 to odorant, in words [2] | Number of cell responses, Control [3] | Response of OR8B4 to odorant, in words ([4]; Ca-imaging) | Response of OR8D2 to odorant, in words [5] | OR8B4 responded to odorant ([4]; Ca-imaging, HEK293 cells, individual odorant 200 μM, significant response p<0.05) | Number of cell responses (OR8B4) ([4]; odorant 200 μM, approximately 2000 transfected cells in three times of measuring (FIG. 5)) | Number of cell responses, Experiment (OR4X2) [6] |
| --- | --- | --- | --- | --- | --- | --- | --- | --- | --- | --- | --- |
| ▪ | ▪ | 21 | CC(C)(CO)Cc1ccccc1 [Muguet alcohol, Muguetalcohol] |  | detected | 0 | activated | significantly activated; also recorded: detected |  |  |  |
|  |  | 9 | CCCCCCCCO [Octanol] |  |  | 0 |  |  |  |  |  |
| ▪ | ▪ | 9 | CCCCCCO [Alcohol C6] |  | elicited a response; also recorded: detected |  |  | elicited a response; also recorded: significantly activated; also recorded: detected |  |  |  |
